# From paper PMC3594701 (Journal of acquired immune deficiency syndromes (1999), 2011)
# Entries after “also recorded” stand apart in the source; their conditions may differ.
# Key:
# [1] = IC accumulation: ratio of IC drug to drug in plasma; conditions: human, oral, GM IC to Plasma Ratio
# [2] = Steady-state plasma pharmacokinetics; type: in vivo, human; conditions: for Cmax / concentration at 24 h: human; for Cmax: GM Cmax; for concentration at 24 h: GM Ctrough
# [3] = Steady-state intracellular; type: in vivo, human; conditions: IC (PBMC); for GM AUC (darunavir, ritonavir) / GM AUC: AUC0–24; for Cmax / concentration at 24 h: human, oral; for Cmax: GM Cmax; for concentration at 24 h: GM Ctrough
# [4] = PBMC (intracellular)/plasma, Cmax, group 1, period 3 (day 49): darunavir/ritonavir 800/100 mg once daily, without raltegravir
# [5] = PBMC (intracellular)/plasma, Cmax, group 2, period 3 (day 49): darunavir/ritonavir 800/100 mg once daily, without raltegravir
# [6] = PBMC (intracellular)/plasma, Ctrough, group 1, period 3 (day 49): darunavir/ritonavir 800/100 mg once daily, without raltegravir
# [7] = PBMC (intracellular)/plasma, Ctrough, group 2, period 3 (day 49): darunavir/ritonavir 800/100 mg once daily, without raltegravir
# [8] = intracellular (PBMC) / plasma, AUC (darunavir, ritonavir), group 1, period 2 (day 35): darunavir/ritonavir 800/100 mg once daily + raltegravir 400 mg twice daily
# [9] = intracellular (PBMC) / plasma, AUC (darunavir, ritonavir), group 2, period 2 (day 35): darunavir/ritonavir 800/100 mg once daily + raltegravir 800 mg once daily
# [10] = intracellular (PBMC) / plasma, AUC, group 1, period 3 (day 49): darunavir/ritonavir 800/100 mg once daily, without raltegravir
# [11] = intracellular (PBMC) / plasma, AUC, group 2, period 3 (day 49): darunavir/ritonavir 800/100 mg once daily, without raltegravir
# [12] = intracellular (PBMC) / plasma, Cmax, group 1, period 2 (day 35): raltegravir 400 mg twice daily + darunavir/ritonavir 800/100 mg once daily
# [13] = intracellular (PBMC) / plasma, Cmax, group 2, period 2 (day 35): raltegravir 800 mg once daily + darunavir/ritonavir 800/100 mg once daily
# [14] = intracellular (PBMC) / plasma, Ctrough, group 1, period 2 (day 35): raltegravir 400 mg twice daily + darunavir/ritonavir 800/100 mg once daily
# [15] = intracellular (PBMC) / plasma, Ctrough, group 2, period 2 (day 35): raltegravir 800 mg once daily + darunavir/ritonavir 800/100 mg once daily
# [16] = group 1, period 2 (day 35): raltegravir 400 mg twice daily + darunavir/ritonavir 800/100 mg once daily
# [17] = group 1, period 3 (day 49): darunavir/ritonavir 800/100 mg once daily, without raltegravir
# [18] = group 2, period 3 (day 49): darunavir/ritonavir 800/100 mg once daily, without raltegravir
# [19] = oral, group 1, period 3 (day 49): darunavir/ritonavir 800/100 mg once daily, without raltegravir
# [20] = oral, group 2, period 3 (day 49): darunavir/ritonavir 800/100 mg once daily, without raltegravir
# [21] = PBMC, group 2, period 2 (day 35): raltegravir 800 mg once daily + darunavir/ritonavir 800/100 mg once daily
smiles,measurement,setting,value
"CC(C)CN(C[C@@H](O)[C@H](Cc1ccccc1)NC(=O)O[C@H]1CO[C@H]2OCC[C@H]21)S(=O)(=O)c1ccc(N)cc1 [Darunavir, darunavir]",Kp,[1]; [4],6.8
same,Kp,[1]; [5],4.8
same,Kp,[1]; [6],4.8
same,Kp,[1]; [7],4.4
same,Kp,[1]; [8],5.3
same,Kp,[1]; [9],5.6
same,Kp,[1]; [10],5.3
same,Kp,[1]; [11],4.9
same,Kp,[1]; [12],6.8
same,Kp,[1]; [13],6.3
same,Kp,[1]; [14],4.4
same,Kp at 24 h,[1]; [15],4.3
"CC(C)c1nc(CN(C)C(=O)N[C@H](C(=O)N[C@@H](Cc2ccccc2)C[C@H](O)[C@H](Cc2ccccc2)NC(=O)OCc2cncs2)C(C)C)cs1 [Ritonavir, ritonavir]","GM AUC (darunavir, ritonavir)","[2]; group 1, period 2 (day 35): darunavir/ritonavir 800/100 mg once daily + raltegravir 400 mg twice daily, AUC0–24",4299 ng/h/mL
same,"GM AUC (darunavir, ritonavir)","[2]; group 1, period 2 (day 35): darunavir/ritonavir 800/100 mg once daily + raltegravir 400 mg twice daily, AUC0–24, listed as ritonavir",4299 (3823–5176) ng·h^−1·mL^−1
same,GM Ctrough,[2]; [16],48 ng/mL
same,GM Ctrough,[2]; [17],44 ng/mL
same,GM AUC,"[2]; group 1, period 3 (day 49): darunavir/ritonavir 800/100 mg once daily, without raltegravir, AUC0–24",4568 ng/h/mL
same,GM AUC,"[2]; group 1, period 3 (day 49): darunavir/ritonavir 800/100 mg once daily, without raltegravir, AUC0–24, listed as ritonavir",4568 (4070–5427) ng·h^−1·mL^−1
same,"GM AUC (darunavir, ritonavir)","[2]; group 2, period 2 (day 35): darunavir/ritonavir 800/100 mg once daily + raltegravir 800 mg once daily, AUC0–24",4359 ng/h/mL
same,"GM AUC (darunavir, ritonavir)","[2]; group 2, period 2 (day 35): darunavir/ritonavir 800/100 mg once daily + raltegravir 800 mg once daily, AUC0–24, listed as ritonavir",4359 (3816–5443) ng·h^−1·mL^−1
same,GM Ctrough,"[2]; group 2, period 2 (day 35): raltegravir 800 mg once daily + darunavir/ritonavir 800/100 mg once daily",34 ng/mL
same,GM Ctrough,[2]; [18],36 ng/mL
same,GM AUC,"[2]; group 2, period 3 (day 49): darunavir/ritonavir 800/100 mg once daily, without raltegravir, AUC0–24",4516 ng/h/mL
same,GM AUC,"[2]; group 2, period 3 (day 49): darunavir/ritonavir 800/100 mg once daily, without raltegravir, AUC0–24, listed as ritonavir",4516 (3798–5986) ng·h^−1·mL^−1
same,Cmax,[2]; [16],483 ng/mL
same,Cmax,[2]; [19],528 ng/mL
same,Cmax,[2]; [20],527 ng/mL
same,concentration at 24 h,[2]; [19],44 ng/mL
same,concentration at 24 h,"[2]; oral, group 2, period 2 (day 35): raltegravir 800 mg once daily + darunavir/ritonavir 800/100 mg once daily",34 ng/mL
same,concentration at 24 h,[2]; [20],36 ng/mL
same,PK exposure parameters with versus without raltegravir,[2]; periods 2 and 3,comparable; also recorded: not affected
same,"GM AUC (darunavir, ritonavir)","[3]; group 1, period 2 (day 35): darunavir/ritonavir 800/100 mg once daily + raltegravir 400 mg twice daily","33,789 ng·h^−1·mL^−1"
same,GM Ctrough,[3]; [16],458 ng/mL
same,GM AUC,[3]; [17],"36,769 ng·h^−1·mL^−1"
same,"GM AUC (darunavir, ritonavir)","[3]; group 2, period 2 (day 35): darunavir/ritonavir 800/100 mg once daily + raltegravir 800 mg once daily","28,683 ng·h^−1·mL^−1"
same,GM AUC,[3]; [18],"27,652 ng·h^−1·mL^−1"
same,Cmax,"[3]; PBMC (intracellular), group 1, period 3 (day 49): darunavir/ritonavir 800/100 mg once daily, without raltegravir",4040 ng/mL
same,Cmax,"[3]; PBMC (intracellular), group 2, period 3 (day 49): darunavir/ritonavir 800/100 mg once daily, without raltegravir",2610 ng/mL
same,Cmax,"[3]; PBMC, group 1, period 2 (day 35): raltegravir 400 mg twice daily + darunavir/ritonavir 800/100 mg once daily",3880 ng/mL
same,Cmax,[3]; [21],3290 ng/mL
same,concentration at 24 h,"[3]; PBMC, group 1, period 3 (day 49): darunavir/ritonavir 800/100 mg once daily, without raltegravir",478 ng/mL
same,concentration at 24 h,[3]; [21],329 ng/mL
same,concentration at 24 h,"[3]; PBMC, group 2, period 3 (day 49): darunavir/ritonavir 800/100 mg once daily, without raltegravir",369 ng/mL
same,Kp,[1]; [4],13.5
same,Kp,[1]; [5],5.2
same,Kp,[1]; [6],11.7
same,Kp,[1]; [7],10.6
same,Kp,[1]; [8],10
same,Kp,[1]; [9],6.9
same,Kp,[1]; [10],9.5
same,Kp,[1]; [11],6.5
same,Kp,[1]; [12],13.8
same,Kp,[1]; [13],5.7
same,Kp,[1]; [14],12
same,Kp at 24 h,[1]; [15],10.1
